Laboratory results from ChEMBL document CHEMBL1201862, “PubChem BioAssay data set” (2004).
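Values below derive from 48-hour exposures of cells grown in 96-well plates, with endpoints linearly interpolated between the two concentrations bracketing the appropriate inhibition level. GI50: concentration for 50% inhibition of growth.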 Activity calls are given as the source filed them. Cut-off read from the data, not from the text of the source: active = GI50 up to about 1.1 µM and inactive = higher.

Assays:
Assay in all cases: inhibition of tumour cell growth, NCI panel, 48 h
RPMI-8226 = test system: RPMI-8226
UO-31 = test system: UO-31
PC-3 = test system: PC-3
MDA-MB-435 = test system: MDA-MB-435
SK-OV-3 = test system: SK-OV-3
A498 = test system: A498
OVCAR-3 = test system: OVCAR-3
K562 = test system: K562
UACC-257 = test system: UACC-257
HT-29 = test system: HT-29
786-0 = test system: 786-0
SK-MEL-5 = test system: SK-MEL-5
Malme-3M = test system: Malme-3M
HOP-92 = test system: HOP-92
HCT-15 = test system: HCT-15
HOP-62 = test system: HOP-62
CAKI-1 = test system: CAKI-1
HCC 2998 = test system: HCC 2998
M14 = test system: M14
SNB-19 = test system: SNB-19
HL-60 = test system: HL-60
KM12 = test system: KM12
U-251 = test system: U-251
MCF7 = test system: MCF7
LOX IMVI = test system: LOX IMVI
ACHN = test system: ACHN
OVCAR-4 = test system: OVCAR-4
UACC-62 = test system: UACC-62
NCI/ADR-RES = test system: NCI/ADR-RES
MDA-MB-231 = test system: MDA-MB-231
T47D = test system: T47D
TK-10 = test system: TK-10
NCI-H23 = test system: NCI-H23
CCRF-CEM = test system: CCRF-CEM
SW-620 = test system: SW-620
OVCAR-8 = test system: OVCAR-8
SK-MEL-28 = test system: SK-MEL-28
HCT-116 = test system: HCT-116
MDA-N = test system: MDA-N
IGROV-1 = test system: IGROV-1
RXF 393 = test system: RXF 393
A549 = test system: A549
NCI-H460 = test system: NCI-H460
Hs-578T = test system: Hs-578T
DU-145 = test system: DU-145
EKVX = test system: EKVX
COLO 205 = test system: COLO 205
SF-295 = test system: SF-295
OVCAR-5 = test system: OVCAR-5
SF-268 = test system: SF-268
SF-539 = test system: SF-539
SNB-75 = test system: SNB-75
SN12C = test system: SN12C
MOLT-4 = test system: MOLT-4

S=C(S)NCNC(=S)S
GI50 (RPMI-8226): > 100 µM (inactive)
GI50 (UO-31): > 100 µM (inactive)
GI50 (PC-3): > 100 µM (inactive)
GI50 (MDA-MB-435): > 100 µM (inactive)
GI50 (SK-OV-3): > 100 µM (inactive)
GI50 (A498): 89.7 µM (inactive)
GI50 (OVCAR-3): > 100 µM (inactive)
GI50 (K562): > 100 µM (inactive)
GI50 (UACC-257): > 100 µM (inactive)
GI50 (HT-29): > 100 µM (inactive)
GI50 (786-0): > 100 µM (inactive)
GI50 (SK-MEL-5): > 100 µM (inactive)
GI50 (Malme-3M): > 100 µM (inactive)
GI50 (HOP-92): > 100 µM (inactive)
GI50 (HCT-15): > 100 µM
GI50 (HOP-62): > 100 µM (inactive)
GI50 (CAKI-1): > 100 µM (inactive)
GI50 (HCC 2998): > 100 µM (inactive)
GI50 (M14): > 100 µM (inactive)
GI50 (SNB-19): > 100 µM (inactive)
GI50 (HL-60): > 100 µM (inactive)
GI50 (KM12): > 100 µM (inactive)
GI50 (U-251): > 100 µM (inactive)
GI50 (MCF7): > 100 µM (inactive)
GI50 (LOX IMVI): > 100 µM (inactive)
GI50 (ACHN): > 100 µM (inactive)
GI50 (OVCAR-4): > 100 µM (inactive)
GI50 (UACC-62): > 100 µM (inactive)
GI50 (NCI/ADR-RES): > 100 µM (inactive)
GI50 (MDA-MB-231): > 100 µM (inactive)
GI50 (T47D): > 100 µM (inactive)
GI50 (TK-10): > 100 µM (inactive)
GI50 (NCI-H23): > 100 µM (inactive)
GI50 (CCRF-CEM): > 100 µM (inactive)
GI50 (SW-620): > 100 µM (inactive)
GI50 (OVCAR-8): > 100 µM (inactive)
GI50 (SK-MEL-28): > 100 µM (inactive)
GI50 (HCT-116): > 100 µM (inactive)
GI50 (MDA-N): > 100 µM (inactive)
GI50 (IGROV-1): > 100 µM (inactive)
GI50 (RXF 393): > 100 µM (inactive)
GI50 (A549): > 100 µM (inactive)
GI50 (NCI-H460): > 100 µM (inactive)
GI50 (Hs-578T): > 100 µM (inactive)
GI50 (DU-145): > 100 µM (inactive)
GI50 (EKVX): > 100 µM (inactive)
GI50 (COLO 205): > 100 µM (inactive)
GI50 (SF-295): > 100 µM (inactive)
GI50 (OVCAR-5): > 100 µM (inactive)
GI50 (SF-268): > 100 µM (inactive)
GI50 (SF-539): > 100 µM (inactive)
GI50 (SNB-75): > 100 µM (inactive)
GI50 (SN12C): > 100 µM (inactive)
GI50 (MOLT-4): > 100 µM (inactive)
